Activity calls are given as the source filed them. No cut-off for these calls is given here.
How the values were obtained:
Format in all cases: functional
Procambarus clarkii = experiment: Induction of depolarization in Procambarus clarkii (crayfish) giant axons assessed as transient inward sodium currents at -100 to -20 mV holding potential at 2 x 10 '-5 M
Spodoptera litura [1] = experiment: Insecticidal activity against third-instar larvae of Spodoptera litura infested compound-treated cabbage leaf assessed as mortality after 48 hr
Spodoptera litura [2] = experiment: Insecticidal activity against third-instar larvae of Spodoptera litura infested compound-treated cabbage leaf assessed as mortality after 48 hr in presence of piperonyl butoxide
Tetranychus urticae [3] = experiment: Ratio of etofenprox LC50 to compound LC50 for Tetranychus urticae (two-spotted spider mite) infested kidney bean leaf disk
Nerve cord = experiment: Induction of repetitive firing in excised nerve cord of Periplaneta americana (American cockroach) measured up to 32 min
Periplaneta americana = experiment: Insecticidal activity against Periplaneta americana (American cockroach) assessed as paralysis/mortality compound injected into abdomen after 24 hr
Tetranychus urticae [4] = experiment: Acaricidal activity against Tetranychus urticae (two-spotted spider mite) infested kidney bean leaf disk assessed as mortality measured after 48 hr

Compound | Activity (Procambarus clarkii) | log(1/LC50) (Spodoptera litura [1]) | log(1/MLD) (Spodoptera litura [2]) | RatioLC50 (Tetranychus urticae [3]) | log(1/MEC) (Nerve cord) | log(1/MLD) (Periplaneta americana) | log(1/LC50) (Tetranychus urticae [4])
CC(C)(COCc1cccc(Oc2ccccc2)c1)c1ccc(OC(F)(F)Br)cc1 [halfenprox] | Active | 4.83 | 9.77 | 200 | 6.57 | 9.67 | 5.77
CC(C)(COCc1cccc(Oc2ccccc2)c1)c1ccc(OC(F)(F)F)cc1 | Active | 5.36 | 9.75 | – | 7.45 | 9.64 | 5.14
CC(C)(COCc1cccc(Oc2ccccc2)c1)c1ccc(OC(F)F)cc1 | Active | 4.7 | 9.52 | – | 7.73 | 9.03 | 3.75
CCOc1ccc(C(C)(C)COCc2cccc(Oc3ccccc3)c2)cc1 [ETOFENPROX] | Active | 4.68 | 9.79 | – | 8 | 9.49 | 3.48
CC(C)(COCc1cccc(Oc2ccccc2)c1)c1ccc(OC(F)(F)Cl)cc1 | Active | 4.96 | 9.75 | – | 6.14 | 9.55 | 5.34

— ChEMBL document CHEMBL3046031, “Comparison of Acaricidal, Insecticidal, and Nerve Activities of Halfenprox (MTI-732) and Related Compounds” (1996)
